Data: article PMC2806030, “Inhibition of mammalian S6 kinase by resveratrol suppresses autophagy” (Aging (Albany NY), 2009)

Legend:
p70 S6 kinase (S6K1) = molecular target: T1, p70 S6 kinase (S6K1) (Rattus norvegicus, UniProt P67999); experiment: in vitro […] kinase assay with immunoprecipitated HA-S6K1 and GST-S6 substrate; also KinaseProfiler screen at […]; type: biochemical
T1 construct: gene Rps6kb1; HA-tagged S6K1 wt immunoprecipitated from HEK293 cells

Aurora-A(h) = molecular target: T2, Aurora-A(h) (Homo sapiens, UniProt O14965); experiment: biochemical; parameters: Upstate KinaseProfiler in vitro kinase activity assay, per cent of DMSO control; conditions: read-out: Activity (% of Control)
T2 construct: gene AURKA
Protocol: (§1) Kinase profile and kinase assay. A Kinase profile against 100 kinases listed for resveratrol at 20 μM was generated utilizing Upstate's KinaseProfiler™ service. Assay protocols for each kinase are available from Upstate (Lake Placid, NY). In vitro kinase assay was performed as described previously. Briefly, HEK293 cells were transfected with HA-S6K1 wt, HA-S6K1 K100R, or vector as indicated. Cells were treated with 1 μg/ml insulin for 10 minutes prior to harvesting in PBS + 0.5% NP-40 + protease and phosphatase inhibitors. 125 μg of lysate per sample was immunoprecipitated using 0.5 μg/sample of anti-HA High-Affinity (Roche, Basel Switzerland). Beads from immunoprecipitations were washed three times in lysis buffer and once in kinase buffer, and kinase assays were performed with recombinant GST-S6 as substrate (1 μg per assay). In the indicated lanes varying doses of resveratrol or DMSO control were added to the reaction prior to addition of the GST-S6 substrate. All samples were subjected to SDS-PAGE, and 32P incorporation was quantified by using a Bio-Rad (Hercules, CA) Phosphor-Imager and subsequent analysis with ImageJ (NIH).  Figure 4. Resveratrol inhibits S6K1 in vitro. (A) Structural similarity between resveratrol and quercetin, a known kinase inhibitor. (B) Kinase inhibition profile for resveratrol at 20 μM obtained using KinaseProfiler™ (Upstate). Dashed line represents 100% activity as compared to control. Black filled-in bar on the graph indicates S6K1. Complete data set is provided in Supplementary Table 1. Error bars represent s.d.m. (C) Phosphorylation of recombinant GST-tagged S6 by immunoprecipitated HA-S6K1 under increasing concentrations of resveratrol (Res). Autoradiograph depicts S6K1 phosphorylation of GST-S6. (D) Average of three separate kinase assay experiments as performed in (C). Densitometry was performed using NIH ImageJ. Error bars represent s.e.m. […] Therefore, we hypothesized that the effect of resveratrol on autophagy could be related to inhibition of one or more upstream kinases. To test this, we performed an in vitro kinase screen and determined an inhibition profile for resveratrol. […] With the exception of S6K1, these kinases play primary roles in the hematopoietic system, and were thus viewed as unlikely to have been responsible for the effect we were studying. […] On the other hand, S6K1 is known to play a requisite role in the regulation of autophagy in Drosophila, making it a promising candidate for the in vivo target of resveratrol that is responsible for inhibition of autophagy.

PI 3-Kinaseβ(h) = molecular target: T3, PI 3-Kinaseβ(h) (Homo sapiens, UniProt P42338); experiment: biochemical; parameters: Upstate KinaseProfiler in vitro kinase activity assay, per cent of DMSO control; conditions: read-out: Activity (% of Control)
T3 construct: gene PIK3CB
Protocol: as §1

PKCßI(h) = molecular target: T4, PKCßI(h) (Homo sapiens, UniProt P05771); experiment: biochemical; parameters: Upstate KinaseProfiler in vitro kinase activity assay, per cent of DMSO control; conditions: read-out: Activity (% of Control)
T4 construct: gene PRKCB; isoform beta I
Protocol: as §1

IRR(h) = molecular target: T5, IRR(h) (Homo sapiens, UniProt P14616); experiment: biochemical; parameters: Upstate KinaseProfiler in vitro kinase activity assay, per cent of DMSO control; conditions: read-out: Activity (% of Control)
T5 construct: gene INSRR
Protocol: as §1

NLK = NLK (Homo sapiens, UniProt Q9UBE8); experiment: biochemical; parameters: Upstate KinaseProfiler in vitro kinase activity assay, per cent of DMSO control; conditions: read-out: Activity (% of Control)
Protocol: as §1

PAK3(h) = PAK3(h) (Homo sapiens, UniProt O75914); experiment: biochemical; parameters: Upstate KinaseProfiler in vitro kinase activity assay, per cent of DMSO control; conditions: read-out: Activity (% of Control)
Protocol: as §1

IKKα(h) = molecular target: T6, IKKα(h) (Homo sapiens, UniProt O15111); experiment: biochemical; parameters: Upstate KinaseProfiler in vitro kinase activity assay, per cent of DMSO control; conditions: read-out: Activity (% of Control)
T6 construct: gene CHUK
Protocol: as §1

PKBγ(h) = molecular target: T7, PKBγ(h) (Homo sapiens, UniProt Q9Y243); experiment: biochemical; parameters: Upstate KinaseProfiler in vitro kinase activity assay, per cent of DMSO control; conditions: read-out: Activity (% of Control)
T7 construct: gene AKT3
Protocol: as §1

MEK1(h) = molecular target: T8, MEK1(h) (Homo sapiens, UniProt Q02750); experiment: biochemical; parameters: Upstate KinaseProfiler in vitro kinase activity assay, per cent of DMSO control; conditions: read-out: Activity (% of Control)
T8 construct: gene MAP2K1
Protocol: as §1

p70S6K(h) = molecular target: T9, p70S6K(h) (Homo sapiens, UniProt P23443); experiment: biochemical; parameters: Upstate KinaseProfiler in vitro kinase activity assay, per cent of DMSO control; conditions: read-out: Activity (% of Control)
T9 construct: gene RPS6KB1
Protocol: as §1

Tie2(h) = molecular target: T10, Tie2(h) (Homo sapiens, UniProt Q02763); experiment: biochemical; parameters: Upstate KinaseProfiler in vitro kinase activity assay, per cent of DMSO control; conditions: read-out: Activity (% of Control)
T10 construct: gene TEK
Protocol: as §1

PI 3-Kinaseδ(h) = molecular target: T11, PI 3-Kinaseδ(h) (Homo sapiens, UniProt O00329); experiment: biochemical; parameters: Upstate KinaseProfiler in vitro kinase activity assay, per cent of DMSO control; conditions: read-out: Activity (% of Control)
T11 construct: gene PIK3CD
Protocol: as §1

ALK4(h) = molecular target: T12, ALK4(h) (Homo sapiens, UniProt P36896); experiment: biochemical; parameters: Upstate KinaseProfiler in vitro kinase activity assay, per cent of DMSO control; conditions: read-out: Activity (% of Control)
T12 construct: gene ACVR1B
Protocol: as §1

FGFR1(h) = FGFR1(h) (Homo sapiens, UniProt P11362); experiment: biochemical; parameters: Upstate KinaseProfiler in vitro kinase activity assay, per cent of DMSO control; conditions: read-out: Activity (% of Control)
Protocol: as §1

CDK2/cyclinA(h) = CDK2/cyclinA(h) (Homo sapiens, UniProt P24941); experiment: biochemical; parameters: Upstate KinaseProfiler in vitro kinase activity assay, per cent of DMSO control; conditions: read-out: Activity (% of Control)
Protocol: as §1

PAK6(h) = PAK6(h) (Homo sapiens, UniProt Q9NQU5); experiment: biochemical; parameters: Upstate KinaseProfiler in vitro kinase activity assay, per cent of DMSO control; conditions: read-out: Activity (% of Control)
Protocol: as §1

SIK(h) = molecular target: T13, SIK(h) (Homo sapiens, UniProt P57059); experiment: biochemical; parameters: Upstate KinaseProfiler in vitro kinase activity assay, per cent of DMSO control; conditions: read-out: Activity (% of Control)
T13 construct: gene SIK1
Protocol: as §1

T12 sequence (P36896 whole entry): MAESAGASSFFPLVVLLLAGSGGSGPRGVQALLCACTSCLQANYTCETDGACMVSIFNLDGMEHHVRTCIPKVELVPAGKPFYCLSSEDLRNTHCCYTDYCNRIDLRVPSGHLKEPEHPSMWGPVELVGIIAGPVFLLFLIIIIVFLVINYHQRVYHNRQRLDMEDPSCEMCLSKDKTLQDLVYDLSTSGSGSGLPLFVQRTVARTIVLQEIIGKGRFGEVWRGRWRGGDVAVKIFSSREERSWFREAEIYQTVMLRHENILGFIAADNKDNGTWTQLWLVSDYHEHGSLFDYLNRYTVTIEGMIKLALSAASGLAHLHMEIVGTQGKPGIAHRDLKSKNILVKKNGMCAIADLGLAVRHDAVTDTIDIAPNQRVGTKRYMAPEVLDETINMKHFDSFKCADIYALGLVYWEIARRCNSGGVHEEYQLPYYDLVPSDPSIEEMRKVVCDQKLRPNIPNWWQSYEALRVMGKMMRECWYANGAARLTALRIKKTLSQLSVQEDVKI
T7 sequence (Q9Y243 whole entry): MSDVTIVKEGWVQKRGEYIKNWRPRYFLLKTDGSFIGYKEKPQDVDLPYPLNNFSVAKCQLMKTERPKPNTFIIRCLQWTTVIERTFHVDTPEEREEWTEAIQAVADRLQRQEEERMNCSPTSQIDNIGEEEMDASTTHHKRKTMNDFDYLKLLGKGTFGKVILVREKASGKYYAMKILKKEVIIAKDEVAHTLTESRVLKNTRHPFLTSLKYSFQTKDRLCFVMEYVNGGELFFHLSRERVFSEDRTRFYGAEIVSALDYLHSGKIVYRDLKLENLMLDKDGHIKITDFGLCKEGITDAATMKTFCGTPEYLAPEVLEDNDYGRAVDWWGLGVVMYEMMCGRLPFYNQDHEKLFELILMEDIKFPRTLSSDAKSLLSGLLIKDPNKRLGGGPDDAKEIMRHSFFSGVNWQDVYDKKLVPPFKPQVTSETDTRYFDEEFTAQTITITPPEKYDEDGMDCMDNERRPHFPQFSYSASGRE
Chain of FGFR1(h) (P11362 whole entry): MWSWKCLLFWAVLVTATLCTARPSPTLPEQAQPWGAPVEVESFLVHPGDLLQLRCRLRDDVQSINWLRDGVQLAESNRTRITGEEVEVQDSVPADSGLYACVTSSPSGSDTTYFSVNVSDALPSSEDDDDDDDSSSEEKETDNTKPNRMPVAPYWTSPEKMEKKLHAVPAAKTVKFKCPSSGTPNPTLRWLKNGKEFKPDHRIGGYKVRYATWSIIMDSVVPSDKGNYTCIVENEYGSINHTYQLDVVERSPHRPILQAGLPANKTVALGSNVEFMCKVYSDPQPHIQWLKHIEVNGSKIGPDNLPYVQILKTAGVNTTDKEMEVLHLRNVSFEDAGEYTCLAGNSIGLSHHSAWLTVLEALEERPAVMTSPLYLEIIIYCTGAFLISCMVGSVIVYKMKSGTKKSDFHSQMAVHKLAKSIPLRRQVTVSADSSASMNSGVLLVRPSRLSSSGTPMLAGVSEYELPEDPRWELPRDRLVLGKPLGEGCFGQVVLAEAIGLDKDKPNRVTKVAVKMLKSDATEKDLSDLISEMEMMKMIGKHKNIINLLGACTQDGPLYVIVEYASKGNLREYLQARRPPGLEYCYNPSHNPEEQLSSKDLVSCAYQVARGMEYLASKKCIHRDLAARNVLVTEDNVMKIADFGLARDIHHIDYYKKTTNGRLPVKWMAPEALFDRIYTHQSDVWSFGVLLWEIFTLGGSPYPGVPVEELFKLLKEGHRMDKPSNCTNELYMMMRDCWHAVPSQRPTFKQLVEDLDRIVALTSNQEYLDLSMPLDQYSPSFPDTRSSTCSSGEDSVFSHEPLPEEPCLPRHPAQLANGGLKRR
T5 sequence (P14616 whole entry): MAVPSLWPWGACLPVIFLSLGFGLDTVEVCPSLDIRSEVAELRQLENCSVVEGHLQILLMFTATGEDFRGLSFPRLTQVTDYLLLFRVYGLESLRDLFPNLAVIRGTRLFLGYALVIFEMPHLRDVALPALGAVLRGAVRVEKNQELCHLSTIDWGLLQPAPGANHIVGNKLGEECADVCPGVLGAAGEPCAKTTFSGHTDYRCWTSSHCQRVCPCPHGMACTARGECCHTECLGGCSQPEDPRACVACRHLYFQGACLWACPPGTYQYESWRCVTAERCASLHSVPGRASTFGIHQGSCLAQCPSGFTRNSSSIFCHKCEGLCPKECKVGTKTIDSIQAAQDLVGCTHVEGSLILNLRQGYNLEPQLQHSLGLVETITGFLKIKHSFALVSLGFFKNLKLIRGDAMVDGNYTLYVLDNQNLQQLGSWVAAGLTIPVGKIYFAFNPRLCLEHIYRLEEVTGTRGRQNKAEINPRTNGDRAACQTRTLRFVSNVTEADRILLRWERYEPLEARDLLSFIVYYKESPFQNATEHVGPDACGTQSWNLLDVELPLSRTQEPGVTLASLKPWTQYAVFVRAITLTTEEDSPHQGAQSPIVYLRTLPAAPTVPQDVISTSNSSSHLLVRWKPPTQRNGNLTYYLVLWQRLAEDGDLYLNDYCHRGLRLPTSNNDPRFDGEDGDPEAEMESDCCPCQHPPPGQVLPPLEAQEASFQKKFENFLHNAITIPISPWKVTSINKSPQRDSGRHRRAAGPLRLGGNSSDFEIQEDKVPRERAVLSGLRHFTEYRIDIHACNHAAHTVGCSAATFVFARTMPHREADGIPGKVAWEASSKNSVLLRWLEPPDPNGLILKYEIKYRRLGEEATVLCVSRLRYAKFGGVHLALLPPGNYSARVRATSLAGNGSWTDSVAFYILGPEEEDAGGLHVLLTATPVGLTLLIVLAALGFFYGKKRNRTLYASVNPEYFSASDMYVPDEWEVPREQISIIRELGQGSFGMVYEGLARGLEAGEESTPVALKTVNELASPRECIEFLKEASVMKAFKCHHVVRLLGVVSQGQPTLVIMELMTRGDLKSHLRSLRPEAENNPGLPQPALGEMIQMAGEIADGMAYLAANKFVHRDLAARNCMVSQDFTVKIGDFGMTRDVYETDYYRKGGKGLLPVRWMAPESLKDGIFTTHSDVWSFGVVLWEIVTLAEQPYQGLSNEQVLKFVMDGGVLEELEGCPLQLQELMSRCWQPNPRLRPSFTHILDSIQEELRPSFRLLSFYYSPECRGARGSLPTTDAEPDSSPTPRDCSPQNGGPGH
T11 sequence (O00329 whole entry): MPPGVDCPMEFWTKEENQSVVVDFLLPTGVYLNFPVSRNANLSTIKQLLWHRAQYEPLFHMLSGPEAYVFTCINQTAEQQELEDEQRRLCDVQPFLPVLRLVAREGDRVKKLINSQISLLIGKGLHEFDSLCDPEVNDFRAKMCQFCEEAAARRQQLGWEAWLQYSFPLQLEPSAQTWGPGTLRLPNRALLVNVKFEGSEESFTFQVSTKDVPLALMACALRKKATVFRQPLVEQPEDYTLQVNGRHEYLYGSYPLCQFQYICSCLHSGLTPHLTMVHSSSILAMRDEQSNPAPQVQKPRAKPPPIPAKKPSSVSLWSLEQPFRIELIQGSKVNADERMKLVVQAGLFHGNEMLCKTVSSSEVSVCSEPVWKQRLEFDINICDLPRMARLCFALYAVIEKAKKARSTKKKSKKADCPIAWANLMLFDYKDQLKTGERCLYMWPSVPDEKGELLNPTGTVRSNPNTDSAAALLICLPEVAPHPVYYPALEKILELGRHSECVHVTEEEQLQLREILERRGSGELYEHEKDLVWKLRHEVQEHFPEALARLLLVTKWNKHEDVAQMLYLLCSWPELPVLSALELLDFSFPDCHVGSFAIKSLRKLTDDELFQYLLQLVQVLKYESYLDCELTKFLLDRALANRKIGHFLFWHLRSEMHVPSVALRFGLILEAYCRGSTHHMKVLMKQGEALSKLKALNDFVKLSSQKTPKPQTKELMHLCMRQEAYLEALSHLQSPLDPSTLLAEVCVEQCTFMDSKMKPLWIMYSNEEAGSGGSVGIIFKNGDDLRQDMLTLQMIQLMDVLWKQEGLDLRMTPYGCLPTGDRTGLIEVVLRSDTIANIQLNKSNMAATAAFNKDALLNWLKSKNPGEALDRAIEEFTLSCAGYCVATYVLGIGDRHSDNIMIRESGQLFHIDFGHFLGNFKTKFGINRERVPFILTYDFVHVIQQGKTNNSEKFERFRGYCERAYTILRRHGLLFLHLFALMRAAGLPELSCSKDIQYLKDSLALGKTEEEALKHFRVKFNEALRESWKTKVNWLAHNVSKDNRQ
T11 sequence (P27986 whole entry partner): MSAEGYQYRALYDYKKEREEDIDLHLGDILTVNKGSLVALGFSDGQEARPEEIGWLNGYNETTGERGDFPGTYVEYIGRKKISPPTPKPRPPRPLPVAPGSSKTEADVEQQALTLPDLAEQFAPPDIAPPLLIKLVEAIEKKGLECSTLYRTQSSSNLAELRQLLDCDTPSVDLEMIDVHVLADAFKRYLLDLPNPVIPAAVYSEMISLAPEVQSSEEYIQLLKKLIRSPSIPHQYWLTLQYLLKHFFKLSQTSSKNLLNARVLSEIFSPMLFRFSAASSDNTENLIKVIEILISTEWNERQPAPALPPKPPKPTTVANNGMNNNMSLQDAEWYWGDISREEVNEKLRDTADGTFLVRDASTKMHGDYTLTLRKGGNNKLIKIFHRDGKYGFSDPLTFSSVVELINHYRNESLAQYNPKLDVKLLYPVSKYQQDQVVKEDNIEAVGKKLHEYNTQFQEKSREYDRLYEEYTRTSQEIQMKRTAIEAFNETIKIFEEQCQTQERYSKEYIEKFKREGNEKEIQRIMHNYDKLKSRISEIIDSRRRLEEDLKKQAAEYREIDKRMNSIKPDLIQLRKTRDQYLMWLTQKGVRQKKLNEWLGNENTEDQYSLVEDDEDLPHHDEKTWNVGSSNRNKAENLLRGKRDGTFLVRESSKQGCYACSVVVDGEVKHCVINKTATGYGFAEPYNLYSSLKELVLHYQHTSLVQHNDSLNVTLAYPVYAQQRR

Oc1ccc(/C=C/c2cc(O)cc(O)c2)cc1 [Res, resveratrol]
IC50 (p70 S6 kinase (S6K1)): ~25 µM | remaining activity at 20 µM (Aurora-A(h)): 65 ± 1% | remaining activity at 20 µM (PI 3-Kinaseβ(h)): 107 ± 1% | remaining activity at 20 µM (PKCßI(h)): 103 ± 5% | remaining activity at 20 µM (IRR(h)): 40% | remaining activity at 20 µM (NLK): 30 ± 2% | remaining activity at 20 µM (PAK3(h)): 46% | remaining activity at 20 µM (IKKα(h)): 40 ± 1% | remaining activity at 20 µM (PKBγ(h)): 89 ± 4% | remaining activity at 20 µM (MEK1(h)): 110 ± 5% | remaining activity at 20 µM (p70S6K(h)): 21 ± 1% | remaining activity at 20 µM (Tie2(h)): 94 ± 8% | remaining activity at 20 µM (PI 3-Kinaseδ(h)): 106 ± 1% | remaining activity at 20 µM (ALK4(h)): 110 ± 3% | remaining activity at 20 µM (FGFR1(h)): 58 ± 2% | remaining activity at 20 µM (CDK2/cyclinA(h)): 80 ± 1% | remaining activity at 20 µM (PAK6(h)): 103 ± 3% | remaining activity at 20 µM (SIK(h)): 76 ± 1%
